{
  "source": "patent US6818215B2",
  "about": "“Antibodies to senescent cell-derived inhibiters of DNA synthesis” (priority 1991, dated 2004)",
  "key": {"Breast (T-47 D)": {"system": "Breast (T-47 D)", "experiment": "GST-SDI-1 fusion protein, thymidine incorporation", "format": "cell-based, human", "protocol": "(§1) As indicated above, SDI-1 has the capacity to suppress the proliferation of tumor cells. […] In the experiment, 5×10^3 cells were plated overnight at 37° C. (only for adherent cells) and then incubated with the SDI fusion protein. After 48 hours at 37° C., cells were pulsed with thymidine for 24 hours and then harvested. The results of this experiment are shown in Table 8; the thymidine incorporation by untreated cells was expressed as 100%. all determinations were made in quadruplicate."}, "Burkitt Lymphoma (Daudi)": {"system": "Burkitt Lymphoma (Daudi)", "experiment": "GST-SDI-1 fusion protein, thymidine incorporation", "format": "cell-based, human", "settings": "30 μg/ml", "protocol": "as §1"}, "Glial (U-251)": {"system": "Glial (U-251)", "experiment": "GST-SDI-1 fusion protein, thymidine incorporation", "format": "cell-based, human", "protocol": "as §1"}, "Hepatocellular (Hep G2)": {"system": "Hepatocellular (Hep G2)", "experiment": "GST-SDI-1 fusion protein, thymidine incorporation", "format": "cell-based, human", "protocol": "as §1"}, "[1]": {"system": "Lung adenocarcinoma (A-549)", "experiment": "GST-SDI-1 fusion protein, thymidine incorporation", "format": "cell-based, human", "protocol": "as §1"}, "Fibroblasts (L-929)": {"system": "Fibroblasts (L-929)", "experiment": "GST-SDI-1 fusion protein, thymidine incorporation", "format": "cell-based, Murine", "settings": "50 μg/ml", "protocol": "as §1"}, "[2]": {"system": "SV40 early promoter with three E2F binding sites (SV/E2F)", "experiment": "CAT reporter transcription assay, SV/E2F-CAT", "format": "cell-based", "settings": "A31 cells", "protocol": "(§2) The effect of the human SDI-1 on transcription driven by two E2F-responsive promoters was determined. Proliferating A31 cells were transfected with an SDI-1 expression vector in which the SDI-1 cDNA was driven by the strong constitutive cytomegalovirus early promoter (CMV) together with a reporter vector in which the chloramphenicol acetyltransferase (CAT) gene was driven by either the hamster dihydrofolate reductase (DHFR) promoter or the human cdc2 promoter (cdc2-CAT). A31 cells are Balb/c murine 3T3 fibroblasts whose origin and growth properties have been described (Lu, K. et al., Molec. Cell. Biol. 9:3411-3417 (1989); Dimri, G. P et al., J. Biol. Chem. 269:16180-16186 (1994), herein incorporated by reference). Cells were transfected with 2 μg of expression vectors, reporters vectors (for transactivation) and the CMV-β-gal identification/normalization vector using Lipofectamine (Gibco-BRL), as described by Dimri, G. P et al. (J. Biol. Chem. 269:16180-16186 (1994), herein incorporated by reference), The vector backbone was added to the mixture as needed to equalize the amount of transfected DNA. […]\n(§3) To more critically ascertain whether the inhibition of transcription by SDI-1 was E2F-dependent, three E2F binding sites were inserted into the SV40 early promoter and the effect of CMV-SDI-1 on CAT activity driven by this modified promoter (SV/E2F) was determined. […]"}, "[3]": {"system": "SV40 early promoter with mutant E2F binding sites (SV/E2Fm)", "experiment": "CAT reporter transcription assay, SV/E2Fm-CAT", "format": "cell-based", "settings": "A31 cells", "protocol": "as §2, §3"}, "C33A (HTB 31)": {"system": "C33A (HTB 31)", "experiment": "DNA synthesis inhibition by SDI-1 in pRb-deficient cells", "format": "cell-based, human", "protocol": "Because SDI-1 inhibits the protein kinases that phosphorylate pRb, and unphosphorylated pRb is believed to negatively regulate E2F activity (Nevins, J. R., Science 258:424-429 (1992)), pRb is presumed to be a central mediator of SDI-1's effects. Since A31 cells express a normal Rb gene, the ability of SDI-1 to inhibit E2F activity, and possibly growth, in tumor cells that lack a functional pRb was tested. […] C33A cells were obtained from the American Type Culture Collection (Rockville, Md.).\nBy contrast, C33A and A31 cells were equally sensitive to SDI-1 inhibition of E2F activity. Thus, CMV-SDI-1 reduced DHFR-, cdc2- and SV/E2F-driven CAT activity to approximately equal extents in C33A and A31 cells. As expected CMV-SDI-1 had no effect on SV/E2Fm-driven CAT activity in either cell line."}, "[4]": {"system": "E2F/p107/cdk/cyclin complexes", "experiment": "Effect of recombinant SDI-1 on DNA-protein complexes at an E2F binding site in nuclear extracts", "format": "biochemical", "settings": "extracts from cells in late G1", "excerpt": "E2F binding sites are occupied by protein complexes, whose composition—at least by in vitro analyses—depend on the cellular growth state and stage of the cell cycle (Chellappan, S. P. et al., Cell 65:1053-1061 (1991); Nevins, J. R., Science 258:424-429 (1992); Farnham, P. J. et al., Biochim. Biophys. Acta 1155:125-131 (1993)). To determine which if any of these complexes might be a target for SDI-1, the effect of recombinant SDI-1 protein on DNA-protein complexes that associate with an E2F binding site in vitro was determined\nE2F-1 is induced a few hours prior to S phase (Shan, B. et al., Molec. Cell. Biol. 12:5620-5631 (1992); Slansky, J. E. et al., Molec. Cell. Biol. 13:1610-1618 (1993); Dimri, G. P et al., J. Biol. Chem. 269:16180-16186 (1994)) at about which time nuclear extracts from cells in mid to late G1 contain increased levels of free E2F, E2F in association with pRb, and E2F in association with p107, cdk2 and cyclin E (mid-late G1-early S). Of the complexes present in extracts from cells in late G1, only the E2F/p107/cdk/cyclin complexes were disrupted by recombinant SDI-1."}},
  "data": [
    {"substance": "SDI-1: senescent cell derived inhibitor of DNA synthesis, 164 amino acid protein, SEQ ID NO:2", "values": [
      {"measurement": "Relative Cell (% of Control)", "setting": "Breast (T-47 D); 30 μg/ml", "value": "2 ± 0 % of Control"},
      {"measurement": "Relative Cell (% of Control)", "setting": "Breast (T-47 D); 50 μg/ml", "value": "2 ± 0 % of Control"},
      {"measurement": "Relative Cell (% of Control)", "setting": "Burkitt Lymphoma (Daudi)", "value": "3 ± 0 % of Control"},
      {"measurement": "Relative Cell (% of Control)", "setting": "Glial (U-251); 30 μg/ml", "value": "66 ± 4 % of Control"},
      {"measurement": "Relative Cell (% of Control)", "setting": "Glial (U-251); 50 μg/ml", "value": "35 ± 2 % of Control"},
      {"measurement": "Relative Cell (% of Control)", "setting": "Hepatocellular (Hep G2); 30 μg/ml", "value": "21 ± 3 % of Control"},
      {"measurement": "Relative Cell (% of Control)", "setting": "Hepatocellular (Hep G2); 50 μg/ml", "value": "12 ± 2 % of Control"},
      {"measurement": "Relative Cell (% of Control)", "setting": "[1]; 30 μg/ml", "value": "40 ± 1 % of Control"},
      {"measurement": "Relative Cell (% of Control)", "setting": "[1]; 50 μg/ml", "value": "25 ± 3 % of Control"},
      {"measurement": "Relative Cell (% of Control)", "setting": "Fibroblasts (L-929)", "value": "4 ± 1 % of Control"},
      {"measurement": "Transcription (Normalized) % Activity", "setting": "[2]", "value": 50, "unit": "%"},
      {"measurement": "Transcription (Normalized) % Inhibition", "setting": "[2]", "value": 50, "unit": "%"},
      {"measurement": "Transcription (Normalized) % Activity", "setting": "[3]", "value": 93, "unit": "%"},
      {"measurement": "Transcription (Normalized) % Inhibition", "setting": "[3]", "value": 7, "unit": "%"},
      {"measurement": "inhibition (antiproliferative effect)", "setting": "C33A (HTB 31)", "value": "40-50%"},
      {"measurement": "effect on E2F/p107/cdk/cyclin complexes", "setting": "[4]", "value": "disrupted"}
    ]}
  ]
}
